Results published in patent US20080305097A1, “Use of Protease or a Protease Inhibitor for the Manufacture of Medicaments” (YEDA RESEARCH AND DEVELOPMENT CO., LTD., priority 2004, published 2008).

Legend:
[1] = test system: TRAP+ multinucleated osteoclasts; assay: Osteoblast/BM co-culture, TRAP+ multinucleated osteoclast count; assay type: cell-based, mouse; conditions: G-CSF 50 ng/ml, HGF 50 ng/ml, SDF-1 10 and 100 ng/ml; 5 days
Experimental: Osteoclast precursors are stimulated by cell-cell contact with osteoblasts to become activated multinucleated TRAP+ bone resorbing cells. To obtain active osteoclasts in vitro, a clvarian osteoblasts are incubated with Vitamine D3 and PG2E which potentiate their M-CSF production and RANKL expression, needed for osteoclast activation. BM cells which contain osteoclast precursors are seeded then on the osteoblast monolayer, for 5 days, to obtain active multinucleated osteoclasts.
A co-culture of primary mouse osteoblasts and BM (containing ocl precursors as detailed above) was seeded in the presence of G-CSF (50 ng/ml), HGF (50 ng/ml), or SDF-1 (10 and 100 ng/ml). Five days later, TRAP+ multinucleated osteoclasts in the cultures were stained (as described in Example 1) and counted 5 days later.

SDF-1 [2] = assay: SDF-1 transcription (RT-PCR) and secretion (ELISA) in primary calvaria osteoblasts; assay type: cell-based, mouse; conditions: 50 ng/ml, 3 days
Experimental: Osteoblast were incubated with G-CSF, HGF or remained untreated, and SDF-1 transcription and expression was determined in such cells (FIG. 9).
Primary calvaria osteoblasts were cultured for 3 days in the presence of SDF-1 (PeproTech, 100 […]), HGF (PeproTech, 50 ng/ml) and G-CSF (Filgrastin, Roche, 50 ng/ml). Conditioned media was collected to determine SDF-1 concentration by ELISA, as described in Example 2. Determination of SDF-1 transcription and expression as in Example 2.

osteoclast = assay: In vivo osteoclast activation by SDF-1 or HGF, TRAP staining; parameters: species or system Balb/c mice; conditions: subcutaneously five consecutive days, 10 mcg SDF-1 or 1.5 mcg HGF
Experimental: (§1) We carried out the following experiment to verify in vivo our hypothesis that SDF-1 induces osteoclast activation and hematopoietic progenitor cell (HPC) mobilization. Balb/c mice were injected subcutaneously for five consecutive days with 10 mcg SDF-1 or 1.5 mcg HGF or both, and osteoclast activation (measured by TRAP+ staining as in Example 1) and mobilization to the peripheral blood, (assayed in semi solid culture as in Example 1) was determined.

[3] = test system: hematopoietic progenitor cell (HPC); assay: In vivo progenitor mobilization by SDF-1 or HGF, semi solid culture; parameters: species or system Balb/c mice; conditions: subcutaneously five consecutive days, 10 mcg SDF-1 or 1.5 mcg HGF
Experimental: as §1
(§2) In order to detect the levels of mouse progenitors in the blood circulation, semisolid cultures were performed as previously described (Petit, Nat Immunol, 2002). In brief, mouse BM cells (3×10^5 cells/ml) were plated in 0.9% methylcellulose (Sigma), 30% FCS, 5×10^−5M 2ME, 50 ng/ml SCF, 5 ng/ml IL-3, 5 ng/ml GM-CSF (R&D), and 2 u/ml erythropoietin (Orto Bio Tech, Don Mills, Canada). The cultures were incubated at 37° C. in a humidified atmosphere containing 5% CO2 and scored 7 days later by inverted microscopy by morphologic criteria.

TRAP+ osteoclasts = assay: TRAP staining of activated osteoclasts in BM after LPS; assay type: in vivo, Balb/c mice; conditions: LPS 250 μg/mouse single injection, 5 days later
Experimental: LPS (Sigma) was administered to Balb/c mice in a single subcutaneous injection of 250 μg/mouse, and saline was injected instead of LPS in control groups. 5 days following LPS administration, mice were sacrificed, bones were fixed, decalcified, paraffin embedded and sectioned, BM harvested, and the level of TRAP+ osteoclast (activated osteoclast) monitored.
In this assay substrate is exogeneously provided to measure intrinsic activity of the tissue TRAP in the BM of LPS treated mice (FIGS. 1A and B).

HGF = assay: Semi quantitative RT-PCR of BM after LPS: HGF; assay type: in vivo, mouse; conditions: LPS treated mice, 5 days
Experimental: (§3) One femur of each mouse was flushed with Trireagent for RNA extraction. 1 ug RNA was used for the preparation of cDNA. Semi quantitative RT-PCR was used to measure the transcription of mouse SDF-1, HGF and CTK. The following primers were used: SDF-1 (Ponomaryov, 2000, J. Clin. Invest. 106:1331): left primer (SEQ ID NO: 1) 5′-[…]-3′, right primer (SEQ ID NO: 2) 5′-[…]-3′. HGF (Weinstein, 2001, Moll Cell boil, 21(15):5122): left primer (SEQ ID NO: 3) 5′-[…]-3′, right primer (SEQ ID NO: 4) 5′-[…]-3′. CTK: left primer (SEQ ID NO: 5) 5′-[…]-3′, right primer (SEQ ID NO: 6) 5′-[…]-3′.

CTK = assay: Semi quantitative RT-PCR of BM after LPS: CTK; assay type: in vivo, mouse; conditions: LPS treated mice, 5 days
Experimental: as §3

SDF-1 [4] = assay: Semi quantitative RT-PCR of BM after LPS: SDF-1; assay type: in vivo, mouse; conditions: LPS treated mice, 5 days
Experimental: as §3

SDF-1 [5] = assay: SDF-1 concentration in bone marrow by ELISA after LPS; assay type: in vivo, Balb/c mice
Experimental: Mice were administered for 5 days with LPS as described in example 1 and SDF-1 concentration in bone marrow was monitored (by ELISA as described by Petit et al 2002).
(§4) In order to verify that the progenitor increase detected in PB in the LPS treated mice, results from the egress or mobilization of cells from the bone marrow, mononuclear cells (MNC) were monitored in the BM and in PB by counting numbers of ficolled WBC (leukocytes), using hemacytometer shortly after LPS treatment (16 hours post LPS treatment) and in BM and PB of non treated mice (FIG. 3).

progenitors = assay: CFU assay of progenitors in peripheral blood after LPS; assay type: in vivo, Balb/c mice
Experimental: Mice were administered for 5 days with LPS (as described in Example 1) and progenitor increase in peripheral blood (PB) was measured (as in Example 9).
as §2

mononuclear cells (MNC) = assay: Mononuclear cell counts in BM and PB by hemacytometer after LPS; assay type: in vivo, Balb/c mice; conditions: 16 hours post LPS, versus non treated mice
Experimental: as §4

CXCR4 = CXCR4 expression in BM and PB by flow cytometry after LPS; assay type: in vivo, Balb/c mice; conditions: both BM and PB, 16 hours post LPS
Experimental: We monitored CXCR4 expression in BM and PB of LPS treated mice, 16 hours post LPS administration, and in control non treated mice.

| Substance | level of activated TRAP+ osteoclasts [1] | SDF-1 transcription in osteoblasts (SDF-1 [2]) | SDF-1 production in osteoblasts (SDF-1 [2]; conditioned media ELISA) | osteoclast activation in vivo (osteoclast) | mobilization of progenitors in vivo [3] | TRAP+ osteoclasts in the BM (TRAP+ osteoclasts) | HGF transcription in the BM (HGF) | CTK transcription in the BM (CTK) | SDF-1 transcription in the BM (SDF-1 [4]) | decrease in BM SDF-1 concentration (SDF-1 [5]; 16 hours post LPS, versus non treated mice) | BM SDF-1 concentration (SDF-1 [5]; 5 days LPS) | decrease in BM SDF-1 concentration (SDF-1 [5]; 5 days LPS, versus non-treated control) | progenitor mobilization (progenitors; 16 hours post LPS) | level of progenitors in PB, higher than control non-treated mice (progenitors; 5 days LPS) | progenitor colonies in PB (progenitors; 5 days LPS) | decrease of MNC cells in the BM (mononuclear cells (MNC)) | increase of MNC cells in the PB (mononuclear cells (MNC)) | level of CXCR4 expression (CXCR4) |
| --- | --- | --- | --- | --- | --- | --- | --- | --- | --- | --- | --- | --- | --- | --- | --- | --- | --- | --- |
| HGF: hepatocyte growth factor (PeproTech) | significantly increased | induce | induce | induced | induced |  |  |  |  |  |  |  |  |  |  |  |  |  |
| lipopolysaccharide [LPS] |  |  |  |  |  | dramatic increase in TRAP+ osteoclasts | dramatic increase | dramatic increase | decrease | about 55% | 0.4 ng/mg protein | about 66% | significant increase in progenitor mobilization | about 95% | about 100 colonies per 5×10^5 seeded cells | about 53% | about 78% | significant increase |
